The IC50 is the point on the concentration scale where inhibition reaches its midpoint. Low readings indicate greater potency in that assay, high ones weaker potency in that assay.

The assay deals with T1, MNK2 (Homo sapiens, UniProt Q9HBH9).
T1 construct: the open reading frames of human Mnk1 and Mnk2a were amplified from cDNA; made in house; host or cells: E. coli BL21
T1 sequence (Q9HBH9 whole entry): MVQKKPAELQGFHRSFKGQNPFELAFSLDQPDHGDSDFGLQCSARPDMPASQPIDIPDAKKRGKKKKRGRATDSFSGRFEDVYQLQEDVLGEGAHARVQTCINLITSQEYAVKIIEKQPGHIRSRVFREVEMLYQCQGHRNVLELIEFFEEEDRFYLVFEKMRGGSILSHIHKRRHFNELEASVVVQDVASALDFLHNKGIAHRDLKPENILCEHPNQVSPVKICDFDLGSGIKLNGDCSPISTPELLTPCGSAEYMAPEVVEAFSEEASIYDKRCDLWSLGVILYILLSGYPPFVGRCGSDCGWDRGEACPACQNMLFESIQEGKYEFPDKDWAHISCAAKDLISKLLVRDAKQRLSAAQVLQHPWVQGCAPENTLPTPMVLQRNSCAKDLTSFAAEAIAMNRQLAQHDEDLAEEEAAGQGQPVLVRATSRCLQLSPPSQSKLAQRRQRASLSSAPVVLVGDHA
The assay is described as follows: Mnk2a in vitro kinase assay (indirect fluorescence polarization). In kind it is biochemical. To be noted: pre-activated GST-Mnk2a 2.5 nM, 20 μM ATP, 30 μM substrate peptide. Put shortly:
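Human GST-Mnk2a was expressed in E. coli and activated in vitro with 150 nM pre-activated ERK2 and 50 μM ATP in HEPES pH 7.4/MgCl2 buffer (45 min, 30 °C). Activity on an eIF4E Ser209-derived 12mer peptide was read by competitive fluorescence polarization with a phospho-specific antibody.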
On the technique in general: Fluorescence polarisation rises when a labelled molecule tumbles more slowly, as on binding a larger partner.
`CC(=O)N[C@H]1C[C@H](Oc2cc(F)ccc2Nc2ncnc3sc(C(=O)NC4CCN(C)CC4)c(C)c23)C1` [Example 40] yielded an IC50 of 40 nM.

`CC(=O)N[C@H]1C[C@H](Oc2cc(F)ccc2Nc2ncnc3sc(C(=O)NCCO)c(C)c23)C1` [Example 41]: half-maximal inhibition (IC50) required 152 nM.

Compound `CO[C@H]1CCCC[C@@H]1Oc1cc(F)ccc1Nc1ncnc2sc(C(N)=O)c(C)c12` [Example 42, 4-[4-Fluoro-2-((1S,2S)-2-methoxy-cyclohexyloxy)-phenylamino]-5-methyl-thieno[2,3-d]pyrimidine-6-carboxylic acid amide] returned an IC50 of 140 nM.

`CO[C@H]1CCCC[C@@H]1Oc1cc(F)ccc1Nc1ncnc2sc(C(=O)NCCCN(C)C)c(C)c12` [Example 43, 4-[4-Fluoro-2-((1S,2S)-2-methoxy-cyclohexyloxy)-phenylamino]-5-methyl-thieno[2,3-d]pyrimidine-6-carboxylic acid (3-dimethylamino-propyl)-amide]: the IC50 worked out at 360 nM. This IC50 is about 2.6-fold higher than that of the compound before.

Consider `Cc1c(C(N)=O)sc2ncnc(Nc3ccc(F)cc3O[C@H]3CCCC[C@@H]3O)c12` [Example 51, 4-[4-Fluoro-2-((1S,2S)-2-hydroxy-cyclohexyloxy)-phenylamino]-5-methyl-thieno[2,3-d]pyrimidine-6-carboxylic acid amide], for which half-maximal inhibition (IC50) required 13 nM.

`Cc1c(C(N)=O)sc2ncnc(Nc3ccc(F)cc3O[C@@H]3CCCC[C@H]3O)c12` [Example 52, 4-[4-Fluoro-2-((1R,2R)-2-hydroxy-cyclohexyloxy)-phenylamino]-5-methyl-thieno[2,3-d]pyrimidine-6-carboxylic acid amide] registered an IC50 of 30 nM. Against the preceding compound, the IC50 is about 2.3-fold higher.

As to `Cc1c(C(=O)NCCCN(C)C)sc2ncnc(Nc3ccc(F)cc3O[C@@H]3CCCC[C@H]3O)c12` [Example 53, 4-[4-Fluoro-2-((1R,2R)-2-hydroxy-cyclohexyloxy)-phenylamino]-5-methyl-thieno[2,3-d]pyrimidine-6-carboxylic acid (3-dimethylamino-propyl)-amide], it took 54 nM to reach half-maximal inhibition (IC50).

With `COCCNC(=O)c1sc2ncnc(Nc3ccc(F)cc3O[C@@H]3CCCC[C@H]3O)c2c1C` [Example 54, 4-[4-Fluoro-2-((1R,2R)-2-hydroxy-cyclohexyloxy)-phenylamino]-5-methyl-thieno[2,3-d]pyrimidine-6-carboxylic acid (2-methoxy-ethyl)-amide], 62 nM corresponded to half-maximal inhibition (IC50).

In turn, `Cc1c(C(=O)NCCCN2CCCC2)sc2ncnc(Nc3ccc(F)cc3O[C@H]3CCC[C@H](O)C3)c12` [Example 75] yielded an IC50 of 18 nM.

Compound `COC1CCCC(Oc2cc(F)ccc2Nc2ncnc3sc(C(=O)NCC#CCN)c(C)c23)C1` (stereo not drawn) [Example 80] had an IC50 of 31 nM.

For the compound `COC1CCCC(Oc2cc(F)ccc2Nc2ncnc3sc(C(=O)NCCCCO)c(C)c23)C1` (stereo not drawn) [Example 81], the IC50 was found to be 98 nM.

`COC1CCCC(Oc2cc(F)ccc2Nc2ncnc3sc(C(=O)NCC4COCCN4)c(C)c23)C1` (stereo not drawn) [Example 84] returned a half-inhibitory concentration (IC50) of 91 nM.

On to `COC1CCCC(Oc2cc(F)ccc2Nc2ncnc3sc(C(=O)NC4CCN(C)CC4)c(C)c23)C1` (stereo not drawn) [Example 86], for which half-maximal inhibition (IC50) required 93 nM.

As to `COC1CCCC(Oc2cc(F)ccc2Nc2ncnc3sc(C(=O)NCCCN4CCCC4)c(C)c23)C1` (stereo not drawn) [Example 87], the IC50 was 38 nM.

The compound `COC1CCCC(Oc2cc(F)ccc2Nc2ncnc3sc(C(=O)NC4CC4N)c(C)c23)C1` (stereo not drawn) [Example 90] showed an IC50 of 34 nM.

Regarding `COC1CCCC(Oc2cc(F)ccc2Nc2ncnc3sc(C(=O)NCC#N)c(C)c23)C1` (stereo not drawn) [Example 94], the IC50 was 21 nM.

In the case of `COC1CCCC(Oc2cc(F)ccc2Nc2ncnc3sc(C(=O)NCC#CCN(C)C)c(C)c23)C1` (stereo not drawn) [Example 96], the midpoint of inhibition, the IC50, lay at 14 nM. This IC50 lies about 1.5-fold lower than the previous one.

Compound `COC1CCCC(Oc2cc(F)ccc2Nc2ncnc3sc(C(=O)NCC4COCCN4)c(C)c23)C1` (stereo not drawn) [Example 99] had an IC50 of 36 nM.

With `COC1CCCC(Oc2cc(F)ccc2Nc2ncnc3sc(C(=O)NC4CCN(C)CC4)c(C)c23)C1` (stereo not drawn) [Example 102], half-maximal inhibition (IC50) was put at 34 nM.

As to `COC1CCCC(Oc2cc(F)ccc2Nc2ncnc3sc(C(=O)NCc4cn(C)cn4)c(C)c23)C1` (stereo not drawn) [Example 107], inhibition was half-maximal at 18 nM (IC50). This IC50 is about 1.9-fold lower than that of the compound before.

As to `COC1CCCC(Oc2cc(F)ccc2Nc2ncnc3sc(C(=O)NCCCN(C)C)c(C)c23)C1` (stereo not drawn) [Example 108], it took 19 nM to reach half-maximal inhibition (IC50).

The compound `COC1CCCC(Oc2ncccc2Nc2ncnc3sc(C(=O)NCC#N)c(C)c23)C1` (stereo not drawn) [Example 115] displayed an IC50 of 19 nM. That is a double-digit nanomolar value.

Compound `COC1CCCC(Oc2ncccc2Nc2ncnc3sc(C(=O)NCC#CCN(C)C)c(C)c23)C1` (stereo not drawn) [Example 117] had an IC50 of 12 nM. This IC50 is about 1.6-fold lower than that of the compound before.

The compound `COC1CCCC(Oc2ncccc2Nc2ncnc3sc(C(=O)NC4CCN(C)CC4)c(C)c23)C1` (stereo not drawn) [Example 123] had an IC50 of 26 nM.

For `Cc1c(C(N)=O)sc2ncnc(Nc3ccc(F)cc3O[C@H]3CC[C@@H](O)CC3)c12` [Example 150], inhibition was half-maximal at 11 nM (IC50).

In the case of `Cc1c(C(=O)NCCCN(C)C)sc2ncnc(Nc3ccc(F)cc3O[C@H]3CC[C@@H](O)CC3)c12` [Example 151, 4-[4-Fluoro-2-(cis-4-hydroxy-cyclohexyloxy)-phenylamino]-5-methyl-thieno[2,3-d]pyrimidine-6-carboxylic acid (3-dimethylamino-propyl)-amide], the IC50 was found to be 36 nM.

With `Cc1c(C(=O)NCCCN(C)C)sc2ncnc(Nc3ccc(F)cc3O[C@H]3CC[C@H](O)CC3)c12` [Example 152, 4-[4-Fluoro-2-(trans-4-hydroxy-cyclohexyloxy)-phenylamino]-5-methyl-thieno[2,3-d]pyrimidine-6-carboxylic acid (3-dimethylamino-propyl)-amide], it took 11 nM to reach half-maximal inhibition (IC50).

The compound `Cc1c(C(=O)NCCCN2CCCC2)sc2ncnc(Nc3ccc(F)cc3O[C@H]3CC[C@H](O)CC3)c12` [Example 153, 4-[4-Fluoro-2-(trans-4-hydroxy-cyclohexyloxy)-phenylamino]-5-methyl-thieno[2,3-d]pyrimidine-6-carboxylic acid (3-pyrrolidin-1-yl-propyl)-amide] yielded an IC50 of 9 nM. This IC50 and that of the compound before are within 1.5-fold of each other.

With `Cc1c(C(=O)NCCO)sc2ncnc(Nc3ccc(F)cc3O[C@H]3CC[C@H](O)CC3)c12` [Example 155], half-maximal inhibition (IC50) was put at 9 nM.

Consider `Cc1c(C(=O)NCCCn2ccnc2)sc2ncnc(Nc3ccc(F)cc3O[C@H]3CC[C@H](O)CC3)c12` [Example 156], for which 13 nM corresponded to half-maximal inhibition (IC50). The IC50 values of the last two compounds are within 1.5-fold of each other.

In turn, `Cc1c(C(N)=O)sc2ncnc(Nc3ccc(F)cc3O[C@H]3CC[C@H](O)CC3)c12` [Example 158, 4-[4-Fluoro-2-(trans-4-hydroxy-cyclohexyloxy)-phenylamino]-5-methyl-thieno[2,3-d]pyrimidine-6-carboxylic acid amide] gave an IC50 of 4 nM.

`Cc1c(C(=O)N[C@H]2C[C@@H]2N)sc2ncnc(Nc3ccc(F)cc3O[C@H]3CC[C@H](O)CC3)c12` [Example 159] yielded a 50% inhibitory concentration (IC50) of 16 nM.

In turn, `Cc1c(C(=O)NCC#CCN)sc2ncnc(Nc3ccc(F)cc3O[C@H]3CC[C@H](O)CC3)c12` [Example 160] had an IC50 of 6 nM.

Take `Cc1c(C(=O)NCCCCO)sc2ncnc(Nc3ccc(F)cc3O[C@H]3CC[C@H](O)CC3)c12` [Example 161]: the IC50 came to 17 nM.

The compound `Cc1c(C(=O)NCc2cnco2)sc2ncnc(Nc3ccc(F)cc3O[C@H]3CC[C@H](O)CC3)c12` [Example 162] had a half-maximal inhibitory concentration (IC50) of 10 nM.

As for `Cc1c(C(=O)NCC#N)sc2ncnc(Nc3ccc(F)cc3O[C@H]3CC[C@H](O)CC3)c12` [Example 163], inhibition was half-maximal at 9 nM (IC50).

Consider `CNC(=O)CNC(=O)c1sc2ncnc(Nc3ccc(F)cc3O[C@H]3CC[C@H](O)CC3)c2c1C` [Example 164], for which the IC50 was 16 nM.

`Cc1c(C(=O)NCC#CCN(C)C)sc2ncnc(Nc3ccc(F)cc3O[C@H]3CC[C@H](O)CC3)c12` [Example 165] showed an IC50 of 8 nM.

In turn, `Cc1c(C(=O)NCC2CNCCO2)sc2ncnc(Nc3ccc(F)cc3O[C@H]3CC[C@H](O)CC3)c12` (stereo partly drawn) [Example 166] registered an IC50 of 11 nM. The IC50 values of the last two compounds are within 1.5-fold of each other.

As for `Cc1c(C(=O)N[C@H]2CC[C@H](O)CC2)sc2ncnc(Nc3ccc(F)cc3O[C@H]3CC[C@H](O)CC3)c12` [Example 168], it took 20 nM to reach half-maximal inhibition (IC50).

With `Cc1c(C(=O)NCCN2CCCCC2)sc2ncnc(Nc3ccc(F)cc3O[C@H]3CC[C@H](O)CC3)c12` [Example 170], the IC50 stood at 19 nM.

As to `Cc1c(C(=O)NCC(C)O)sc2ncnc(Nc3ccc(F)cc3O[C@H]3CC[C@H](O)CC3)c12` (stereo partly drawn) [Example 171], the IC50 worked out at 43 nM.

For `Cc1c(C(=O)NCCCO)sc2ncnc(Nc3ccc(F)cc3O[C@H]3CC[C@H](O)CC3)c12` [Example 172], the IC50 came out at 16 nM.

In turn, `CCNC(=O)c1sc2ncnc(Nc3ccc(F)cc3O[C@H]3CC[C@H](O)CC3)c2c1C` [Example 173] returned an IC50 of 14 nM.

As for `Cc1c(C(=O)NCc2cn(C)cn2)sc2ncnc(Nc3ccc(F)cc3O[C@H]3CC[C@H](O)CC3)c12` [Example 174], the IC50 was 10 nM.

Consider `CO[C@H]1CC[C@H](Oc2cc(F)ccc2Nc2ncnc3sc(C(N)=O)c(C)c23)CC1` [Example 175, 4-[4-Fluoro-2-(trans-4-methoxy-cyclohexyloxy)-phenylamino]-5-methyl-thieno[2,3-d]pyrimidine-6-carboxylic acid amide], for which half-maximal inhibition (IC50) required 9 nM. This IC50 and that of the compound before are within 1.5-fold of each other.

`CO[C@H]1CC[C@H](Oc2cc(F)ccc2Nc2ncnc3sc(C(=O)NCC#CCN)c(C)c23)CC1` [Example 178]: the half-inhibitory concentration (IC50) was determined as 16 nM.

`CO[C@H]1CC[C@H](Oc2cc(F)ccc2Nc2ncnc3sc(C(=O)NCC4COCCN4)c(C)c23)CC1` (stereo partly drawn) [Example 179] displayed an IC50 of 30 nM.

With `CO[C@H]1CC[C@H](Oc2cc(F)ccc2Nc2ncnc3sc(C(=O)NCC4CNCCO4)c(C)c23)CC1` (stereo partly drawn) [Example 180], the midpoint of inhibition, the IC50, lay at 16 nM.

With `COC1CCC(Oc2cc(F)ccc2Nc2ncnc3sc(C(=O)NCCCCO)c(C)c23)CC1` (stereo not drawn) [Example 181], the IC50 is 21 nM.

As to `CO[C@H]1CC[C@H](Oc2cc(F)ccc2Nc2ncnc3sc(C(=O)NCC#N)c(C)c23)CC1` [Example 182], the IC50 came out at 15 nM.
